The source of these data is a melting point compilation (Tetko et al.; mined from patent text by program, amines drawn as free bases though some values may be those of a salt).

The structures appear in SMILES notation. Some results are limits rather than exact numbers.

`c1coc(-c2nnc(-n3ccnc3)c3ccccc23)c1` yielded a melting point of 151 to 152 °C.

In turn, `COC(=O)c1cc(C)cc(Br)c1NS(=O)(=O)c1ccc(OC)cc1` yielded a melting point of 113 °C.

Molecule `OCCNC(=S)C1(c2ccccn2)CCCS1` (stereo not given) registered a melting point of 132 °C.

For `CC(C)S(=O)(=O)N1C[C@@H](c2c[nH]c3ccccc23)[C@H](c2cn3c4c(cccc24)CCC3)C1`, the melting point is 100 to 115 °C.

In turn, `CC(N1CCN(c2ncnn2Cc2ccc(C(C)(C)C)cc2)CC1)C(O)(Cn1cncn1)c1ccc(F)cc1F` (stereo not given) returned a melting point of 73 to 75 °C.

In the case of `Cc1ccc(CNC(=O)c2ccnc(NC(=O)c3ccccc3)c2)cc1`, the melting point fell in the range of 135 to 138 °C.

Regarding `COCc1ccc(N)c(O)c1`, the melting point amounted to 108 °C.

As for `CCN(CC)Cc1cc(Nc2snc3ccccc23)ccc1O`, the melting point fell in the range of 164 to 165 °C.

With `CSc1nnc(Sc2cc(C(C)(C)C)c(O)c(C(C)(C)C)c2)s1`, the melting point fell in the range of 144 to 145 °C.

For the molecule `COc1ccc(CNc2nc(NCCCc3ccc(C(C)(C)O)cc3)nc3ncccc23)cc1OC`, the melting point lay within 198 to 199 °C.

`COC(=O)Cc1cc2ccc(OC)cc2[nH]c1=O` registered a melting point of 195 to 196 °C.

Molecule `CCOc1ccccc1-c1ncc(C(N)=O)c(=O)[nH]1` yielded a melting point of 236 to 238 °C.

As for `CCCNC(=O)C1(O)CC(O)C2OC(C)(C)OC2C1` (stereo not given), the melting point is 85 to 86 °C.

The molecule `O=C(O)[C@H](Cc1cncn1COCc1ccccc1)NS(=O)(=O)CCc1ccccc1` gave a melting point of 223 to 233 °C.

Consider `O=C(O)c1ccc(C=CC(=O)N2CCc3c([nH]c4ccccc34)C2c2ccc3c(c2)OCO3)cc1` (stereo not given), for which the melting point fell in the range of 254 to 256 °C.

Turning to `CCOC(=O)N1CCC(N(Cc2ccccc2)C(=S)Nc2ccccc2[N+](=O)[O-])CC1`, the melting point was 140 °C.

For the molecule `CSc1nn2c(N(C)C)cc(C)nc2c1S(=O)(=O)c1ccc(C)cc1`, the melting point is over 230 °C.

Take `CC(Nc1ccc(F)c(F)c1F)C(=O)O` (stereo not given): the melting point lay within 114 to 119 °C.

Regarding `COc1cc(Oc2ccc(S(C)(=O)=O)nc2)cc2cc(C3=NCC(CC(=O)NC4CC4)S3)[nH]c12` (stereo not given), the melting point fell in the range of 248 to 249 °C.

Turning to `COc1ccc(S(=O)(=O)CC(=O)C(C)C)cc1`, the melting point was 48 to 49.5 °C.

For `CC(C)N(C(=O)C(Cc1ccc(C=O)cc1)NC(=O)OC(C)(C)C)C(C)C` (stereo not given), the melting point came to 152 °C.

Take `COCCNC(=O)c1cccc(-c2cccc3c2nc(Oc2cccc(C(F)(F)F)c2)n3C)c1`: the melting point is 146 to 147 °C.

With `CC(C)CC(C(N)=O)N1C(=O)c2ccccc2C1=O` (stereo not given), the melting point lay in the range of 173 to 176 °C.

`CC(C)c1nc(N)c(N)c(=O)[nH]1` came in with a melting point of 198 to 200 °C.

Turning to `Cc1ccc(CC(=S)N[C@@H](Cc2ccccc2)C(=O)O)cc1`, the melting point lay within 92 to 93 °C.

`CCN(C(=O)N(C)C(=O)NC)c1ccccc1` had a melting point of 57 to 58 °C.

In turn, `CCN(CC)C(=O)CC(=O)CC(=O)/C=C/c1c(C2CC2)nc2ccccc2c1-c1ccc(F)cc1` displayed a melting point of 97 to 105 °C.

`CC(=O)Nc1cccc(-c2nc3ncccc3[nH]2)c1`: the melting point is over 250 °C.

In the case of `CCCCOc1ccc(N2CCN(c3cccc(C)c3)CC2)nn1`, the melting point worked out at 105 °C.

In the case of `CCc1noc(-c2ncc3[nH]c4cccc(CN5CCOCC5)c4c3c2COC)n1`, the melting point was 161 to 163 °C.

Turning to `CC(C)N1CC(CCN2CCN(c3ccccc3)CC2)OC1=O` (stereo not given), the melting point is 74 to 75 °C.

`Cc1cc(CNC(=O)c2cc(-c3ccc(C(C)(C)C)cc3)n(Cc3ccccc3)n2)ccc1OC(C)(C)C(=O)O`: the melting point came to 88 °C.

Molecule `COc1ccc(S(=O)(=O)Nc2ccccc2NC(=O)c2ccc(F)cc2)cc1` showed a melting point of 169 to 170 °C.

Molecule `CC(C)(C)C1=NN(c2ccc(C(=O)O)cc2)C(c2ccccc2Cl)C1` (stereo not given) yielded a melting point of 229 °C.

Take `C[C@@H](Nc1ncnc2cc(F)c([N+](=O)[O-])cc12)c1ccccc1`: the melting point came out at 203 °C.

In the case of `CC(=O)OCc1cccc(-c2ccco2)c1C`, the melting point fell in the range of 48.5 to 50 °C.

Turning to `Cc1[nH]c2ccc(/C=C/C(=O)OCc3ccccc3)cc2c1CN(C)C`, the melting point was in the range of 174 to 177 °C.

As to `Cc1[nH]c2cccc(/C=C/C(=O)OCc3ccccc3)c2c1Cc1cccnc1`, the melting point was in the range of 180 to 182 °C.

The molecule `O=C(O)COc1cc(Cl)ccc1C(=O)NCc1ccc(Cl)cc1` displayed a melting point of 184 to 186 °C.

For the molecule `CCCCCCCCCCCCCCCCC#CCC(CO)CO`, the melting point was determined as 55 °C.

The molecule `CC(=O)Nc1ccc(C#N)cc1I` returned a melting point of 176 to 181 °C.

Consider `Cc1ccc(-c2nc(Cl)cc(-c3ccccc3)n2)cc1`, for which the melting point lay in the range of 86 to 87 °C.

In turn, `CCc1nn2ccc3c(c2c1CCNC(C)=O)CCO3` gave a melting point of 161 to 162 °C.

The molecule `Clc1ccc(OC(C(OCc2ccc(Cl)cc2Cl)c2ccc(Cl)cc2Cl)n2cncn2)cc1` (stereo not given) gave a melting point of 132 to 135 °C.

As for `OC(c1cccc(F)c1)C1CCCCN1` (stereo not given), the melting point was 146 to 148 °C.

For the molecule `O=C(Nc1cccc2c1C(=O)c1c-2n[nH]c1[C@H]1CC[C@H](C(=O)N2CCNCC2)CC1)NN1CCOCC1`, the melting point is 247 to 248 °C.

Molecule `Cc1ccc(S(=O)(=O)C2(CC#Cc3ccc(Cl)cc3)SC(=O)NC2=O)cc1` (stereo not given) returned a melting point of 172 to 174 °C.

The molecule `CN(C)c1ccc(C(=CC=CC2N(C)c3ccccc3C2(C)C)c2ccc(N(C)C)cc2)cc1` (stereo not given) came in with a melting point of 182 to 183 °C.

For the molecule `Cc1c(-c2ccc(C#N)cc2)c(C#N)c(C2CC2)n1Cc1cnc(Cl)c(CO)c1`, the melting point is 193 to 194 °C.

Molecule `Nc1nc(NC2CCCC2)c2ncn(C3C=CC(CO)C3)c2n1` (stereo not given) came in with a melting point of 143 to 146 °C.

Turning to `CCOP(=O)(OCC)c1ccc(N)cc1`, the melting point is 112 to 116 °C.

On to `C=CCc1c(O)c(Cl)cc(F)c1N1C(=O)C2=C(CCCC2)C1=O`, for which the melting point was in the range of 109 to 111 °C.

`CCCCC(C(N)=O)n1ccnc1` (stereo not given): the melting point is 90 to 91 °C.

Molecule `CC1(C)[C@H](C(=O)OCc2cnc(Cc3ccccc3)s2)[C@@H]1C=C(Br)Br` yielded a melting point of 66 °C.

`CC(C)(C)[Si](C)(C)O[C@@H]1C[C@]2(O)C[C@@H](OC2=O)[C@@H]1O` returned a melting point of 90 to 94 °C.

For `CC(=O)Nc1nc(C)c(S(=O)(=O)N(CCO)CCO)s1`, the melting point is 204 °C.

`CCOC(=O)c1cc(F)c(SC)nc1NC1CC1` came in with a melting point of 67 to 69 °C.

Molecule `Nc1ccc(Sc2cccc3cnccc23)cc1NCc1ccccc1` showed a melting point of 125 to 127 °C.

As for `Cc1cccc(-c2nc3ccc(Cl)cn3c2-c2ccnc(-c3ccc(CN4CCOCC4)cc3)c2)n1`, the melting point was determined as 157 °C.

In turn, `COc1ccc(-n2c(=O)c(C(=O)O)nc3c(Cl)cccc32)cc1` showed a melting point of 198 to 200 °C.

For `CC(C)c1ccc2c(c1)OC1(O)c3cccc(O)c3C(=O)C21O` (stereo not given), the melting point was 205 to 207 °C.

As to `COc1ccc(-c2nc(C(=O)N3CCOCC3)sc2-c2ccc(OC)cc2)cc1`, the melting point fell in the range of 118 to 122 °C.

`O=C1Nc2cccc(-c3cccc(NS(=O)(=O)c4cc(S(=O)(=O)c5ccccc5)cs4)c3)c2/C1=C/c1ccc[nH]1` had a melting point of 132 to 134 °C.

`c1ccc2c(c1)ncc1nc(C3CCCC3)[nH]c12`: the melting point turned out to be 192 °C.

For the molecule `CCOC(=O)/C(=C\Nc1cc(C)cc(C)c1)c1ccc(OC)cc1`, the melting point lay within 93 to 94 °C.

Consider `CC1CC(=O)NN=C1c1ccc2[nH]c(-c3ccnnc3)cc2c1` (stereo not given), for which the melting point lay in the range of 293 to 295 °C.

For the molecule `Cc1ccc2c(c1)[nH]c(=O)n2CCCO`, the melting point was determined as 114 °C.

In the case of `CCOC(=O)c1nc2c(=O)[nH]c3ccc(-n4ccnc4)cc3n2c1C`, the melting point was over 250 °C.

Turning to `Cc1nc(NC(=O)c2cnn3c(C(F)(F)F)cc(-c4ccc(C(F)(F)F)cc4)nc23)sc1S(=O)(=O)NC(C)(CO)CO`, the melting point is 250 °C.

`CC/C(=C(\c1ccc(/C=C/C(=O)O)cc1)c1ccc(OC(=O)c2ccco2)cc1)c1ccccc1` returned a melting point of 170 to 172 °C.

`Cc1ccccc1C(=O)Nc1ccc(C(=O)N2c3ccccc3CCc3ccccc32)cc1` showed a melting point of 112 to 118 °C.

In turn, `COC(=O)c1cc(N2CCSCC2)c(C(F)(F)F)cc1[N+](=O)[O-]` displayed a melting point of 68 to 82 °C.

`C#Cc1ccc(C(=O)NC(C#N)OCC)cc1` (stereo not given) gave a melting point of 104 to 106 °C.

`CC(c1cccnc1)N(c1ccc(F)cc1)S(C)(=O)=O` (stereo not given): the melting point lay within 82 to 85 °C.

`Nc1nnn(CC(F)(F)F)n1` yielded a melting point of 95 to 97 °C.

Turning to `O=C1CCC(N2Cc3c(OCc4ccc(CSc5nc6ccccc6[nH]5)cc4)cccc3C2=O)C(=O)N1` (stereo not given), the melting point lay within 160 to 162 °C.

`COc1ccc(C(C)=Cc2ccncc2)c2c1OC(C)(C)C2` had a melting point of 85 to 87 °C.

Consider `CCOC(=O)c1cc(NC(=O)C(Cc2ccccc2)NC(=O)OC(C)(C)C)c[nH]1` (stereo not given), for which the melting point was in the range of 148 to 151 °C.

In the case of `CC(=O)O[C@]1(C)CC[C@@H]2C[C@H]1OO[C@@]2(C)CS(=O)(=O)c1ccccc1`, the melting point lay within 98 to 99 °C.

`CC(=O)SCC(Cc1ccccc1)C(=O)Nc1cccc(C(=O)OCCBr)c1` (stereo not given) registered a melting point of 85 to 88 °C.

Turning to `CCCCCCCCOc1ccc(CP(=O)(OC)OC)c2c(CP(=O)(OC)OC)cccc12`, the melting point fell in the range of 51 to 52 °C.

For `COc1cc(Br)cc2cc(C(C)=O)oc12`, the melting point lay in the range of 107 to 109 °C.

Consider `CCOC(COc1ccc(Cl)c2cccnc12)OCC`, for which the melting point fell in the range of 51 to 53 °C.

On to `CS(=O)(=O)Nc1ccc(CCCOCCCCCCNCC(O)c2ccc(O)c(CO)c2)cc1` (stereo not given), for which the melting point was 48 to 50 °C.

With `C=C(C)CCOc1ccc([N+](=O)[O-])cc1Cl`, the melting point was in the range of 38 to 39 °C.

Molecule `COCCONS(=O)(=O)c1ccccc1` yielded a melting point of 110 to 112 °C.

Take `CCOC(=O)C(CC)Oc1ccc2c(-c3ccc(Cl)cc3)noc2c1` (stereo not given): the melting point is 73 °C.

`N=C(N)c1ccc(-c2ccc(N3CCN(CCC(=O)O)S3(=O)=O)cc2)cc1` came in with a melting point of over 260 °C.

The molecule `O=c1[nH]c2ncc(-c3ccc4[nH]cnc4c3)nc2n1CC1CCCCC1` displayed a melting point of 217 to 220 °C.

On to `CC(=O)[NH+]([O-])C[C@@H]1CN(c2ccc(N3CCOCC3)c(F)c2)C(=O)O1` (stereo not given in full), for which the melting point was in the range of 202 to 204 °C.

By melting point is commonly meant the temperature of the solid-liquid transition.
